Assay results from patent US20060217303A1, “Compounds and Methods for Treating Seizure Disorders” (Wisconsin Alumni Research Foundation, priority 2005, published 2006).

Assays:
[1] = system: CA3 region of rat hippocampal slices; assay: Synchronized bursting induced by elevated [K+]o in rat hippocampal slices ex corpora (extracellular CA3 recording); format: cell-based; details: for synchronized bursting: 10 mM glucose; for epileptic discharges evoked in vitro (relative burst frequency) / epileptiform bursting frequency: normal glucose conditions; for epileptic discharges evoked in vitro (relative burst frequency): summary statement; for block of the increase in bursting caused by the PEPCK inhibitor 3-MCP: slices simultaneously exposed to 3-MCP, FIGS. 5A, 5B; for epileptiform bursting frequency: FIG. 6A; for burst frequency: 20 mM lactate or 20 mM pyruvate in place of 10 mM glucose in ACSF, 7.5 mM [K+]o
Method: The effect of various energy sources on synchronized bursting induced by elevation of [K^+]o in rat hippocampal slices ex corpora was evaluated.
In these experiments, postnatal day 28 to 40 male Sprague-Dawley rats were anesthetized and decapitated. Brains were removed and transferred to ice cold artificial cerebrospinal fluid (ACSF, comprising 124 mM NaCl, 5 mM KCl, 1.25 mM NaH2PO4, 1.5 mM MgSO4, 26 mM NaHCO3 and 2 mM CaCl2), supplemented with 10 mM glucose, which was continuously bubbled with 95% O2 and 5% CO2. Transverse hippocampal slices (˜500 microns) were prepared on a Leica VT1000s vibratome (Wetzlar Germany). The slices were allowed to recover for 1 hour at room temperature and were then transferred to an interface recording chamber at 34° C. in ACSF with 7.5 mM [K^+]o. Extracellular recordings were made from the CA3 region with an Axioclamp 2B (Axon Instruments, Forest City, Calif.) using a glass microelectrode filled with 150 mM NaCl. Data were recorded and analyzed using PClamp8 (Axon Instruments).
Synchronized bursting was induced by incubating hippocampal slices in ACSF supplemented with potassium chloride to a final concentration of 7.5 mM [K^+]o. Baseline recordings were obtained after exposure to elevated [K^+]o for 1 hour and the burst frequency had stabilized. Bursting was then recorded in ACSF containing 20 mM lactate or 20 mM pyruvate in place of the 10 mM glucose.

[2] = Duration of anticonvulsant effect of 2DG after stopping treatment while continuing twice daily stimulation; format: in vivo; details: 250 mg/kg twice daily for 3 months; twice daily stimulation continued
Method: . […]; 5 mM solutions of oxaloacetate glycolic acid, chloroacetate and thioglycolate are equivalent to 660 mg/kg 380 mg/kg, ˜620 mg/kg and 460 mg/kg. respectively. […] A practitioner skilled in the art can adjust dosage in the range up to 500-600 mg/kg 2DG and the timing of administration to produce prolonged anticonvulsant and antiepileptic effects. Efficacious dosage amounts can be adjusted to about 14 mg/kg 2-DG in children and 40 mg/kg 2-DG in adults, using therapeutic efficacy measurements (e.g., reduction in frequency or severity of seizures) as a criterion for establishing effective dosage levels.

[3] = system: brains of animals suffering from a seizure disorder; details: as disclosed in co-owned U.S. Ser. No. 60/580,436; cited from earlier work

What does the source list for `O=CC[C@@H](O)[C@H](O)[C@H](O)CO` [2DG, 2-deoxy-D-glucose]?
synchronized bursting ([1]; 1 mM 2DG in the presence of 20 mM lactate): reduced synchronized bursting; epileptic discharges evoked in vitro (relative burst frequency) [1]: effective against epileptic discharges; block of the increase in bursting caused by the PEPCK inhibitor 3-MCP [1]: could not be blocked; duration of anticonvulsant effects after stopping 2DG [2]: approximately 8 weeks; epileptic or synchronized bursting in the brains of animals [3]: effective in reducing epileptic or synchronized bursting

For `O=C(O)c1ncccc1S` [3-MCP, 3-mercaptopicolinic acid, reference compound], which “burst frequency (rate of bursting)” value ([1]; 3 mM 3-MCP in ACSF with 10 mM glucose) is on record?
The value was 208±28 % of baseline.

And the rate of bursting ([1]; 3-MCP, FIGS. 5A and 5B)?
Its rate of bursting is “induces an increase in the rate of bursting”.

With `O=C(O)[C@@H](O)CO` [L-glycerate] as the compound, how does the “epileptic discharges evoked in vitro (relative burst frequency)” value [1] read?
The value was “effective against epileptic discharges”.

With `C=C(OP(=O)(O)O)C(=O)O` [PEP, phosphoenolpyruvate, reference compound] as the compound, how does the “burst frequency (rate of bursting)” value ([1]; 5 mM PEP in ACSF with 10 mM glucose, reversible) read?
The value was 215±32 % of baseline.

What does the source list for `O=C(O)CO` [glycolic acid]?
block of the increase in bursting caused by inhibition of PEPCK by 3-MCP ([1]; PEPCK substrate with 3-MCP, FIGS. 6B, 6C): modestly blocks an increase in bursting; epileptiform bursting frequency [1]: reduce epileptiform bursting frequency; epileptic discharges evoked in vitro (relative burst frequency) [1]: effective against epileptic discharges

Which results are given for `O=C(O)CI` [iodoacetate, reference compound]?
synchronized bursting ([1]; 200 μM iodoacetate, ACSF with 20 mM lactate): reduced synchronized bursting; epileptic discharges evoked in vitro (relative burst frequency) [1]: effective against epileptic discharges; block of the increase in bursting caused by the PEPCK inhibitor 3-MCP [1]: could not be blocked; epileptic or synchronized bursting in the brains of animals [3]: effective in reducing epileptic or synchronized bursting

For `CC(O)C(=O)O` (stereo not shown) [lactate, reference compound], which burst frequency ([1]; reversible) is on record?
The burst frequency was 63±8 % of the baseline.

With `CC(=O)C(=O)O` [pyruvate, reference compound] as the compound, how does the burst frequency ([1]; reversible) read?
Its burst frequency is 4±2 % of the baseline.

Which results are given for `O=C(O)CCl` [β-chloroacetate]?
epileptiform bursting frequency [1]: reduce epileptiform bursting frequency; epileptic discharges evoked in vitro (relative burst frequency) [1]: effective against epileptic discharges

What does the source list for thioglycolate?
epileptiform bursting frequency [1]: reduce epileptiform bursting frequency; epileptic discharges evoked in vitro (relative burst frequency) [1]: effective against epileptic discharges
